# US9890175B2, “Taxane compound, and preparation method and use thereof” (JIANGSU TASLY DIYI PHARMACEUTICAL CO., LTD., priority 2013, dated 2018)
# Read-outs that look alike come from different tables or passages of the source.
# What was measured:
# Hela cervical cancer = experiment: MTT proliferation inhibition, HeLa; format: cell-based; details: Homo sapiens, read-out: Proliferation inhibition rate, HeLa Uterin cancer
# Description: (§1) 1. Cytotoxicity Assay Using Human Tumor Cell Lines
# (§2) Paclitaxel was used as the positive drug.
# HT-29 colon cancer = experiment: MTT proliferation inhibition, HT-29; format: cell-based; details: Homo sapiens, HT-29, read-out: Proliferation inhibition rate, HT29 Colon cancer
# Description: as §1, §2
# LNCaP prostate cancer = experiment: MTT proliferation inhibition, LNCaP; format: cell-based; details: Homo sapiens, read-out: Proliferation inhibition rate, LNCaP Prostate cancer
# Description: as §1, §2
# HCT 116 colon cancer = experiment: MTT proliferation inhibition, HCT 116; format: cell-based; details: Homo sapiens, HCT-116, read-out: Proliferation inhibition rate, HCT 116 Colon cancer
# Description: as §1, §2
# [1] = In vivo oral bioavailability assay in rats; details: rat; for AUC(0-t): 0-24 hours; for MRT inf: read-out: MRT0-∞
# Description: The compound PCMI-08 was synthesized and detected according to the methods provided in the present invention. The internal standard, paclitaxel, was purchased from China's National Institute for the Control of Pharmaceutical and Biological Products (NICPBP). Chromatography-grade acetonitrile was purchased from Sigma-Aldrich Inc. Tween 80 and ethyl acetate were purchased from Aladdin reagent Inc. Male S.D. rats were purchased from Beijing Weitonglihua Inc. and raised in animal house for two weeks.
# 200 mg of PCMI-08 was dissolved in 4 ml of a mixed solution of Tween 80 and anhydrous ethanol (1:1) to prepare a stock solution at 50 mg/ml and normal saline was added to adjust to a suitable concentration. 12 male S.D. rats (300 g of body weight) were taken and divided into two groups after overnight fasting. One group was treated with intravenous injection (5 mg/kg) and the other group was treated orally (60 mg/kg). Blood was sampled in the intravenous group at 0th min, 5th min, 10th min, 20th min, 40th min, 1st h, 2nd h, 4th h, 6th h, 8th h, 12th h, 24th h, while the oral group at 5th min, 15th min, 30th min, 45th min, 1st h, 2nd h, 4th h, 6th h, 8th h, 12th h, 24th h. After 10 min centrifugation of plasma at 4500 rpm, the upper serum was taken and transferred to the corresponding EP tube, placed in a −40° C. freezer for assay.
# Agilent 1100 series configuration: Agilent G1313A HPLC autosampler device, 150 mm×2.1 mm C18 Thermo column (particle size 3 μm) reversed-phase column, detection wavelength at 230 nm, column temperature at 30° C., mobile phase of acetonitrile/water (7:3), a flow rate at 0.2 ml/min, injection volume of 20 μl. The mass spectrometry (MS) combined was Thermo Finnigan TSQ Quantum triple quadrupole configurated with electrospray ionization (ESI) in the positive ion mode. The parameters of MS analysis were as follows: spray chamber voltage, 4.0 kv; heated capillary temperature, 350° C.; protective gas (nitrogen); 20 psi; auxiliary gas (nitrogen): 5 psi; collision gas (argon); pressure: 1.5 mmTorr.; Collision energy: CA 17 eV; FA and IFA were 19 eV; IS was 15 eV.
# Paclitaxel was selected as an internal standard with a retention time of 3.07 min. Retention time of PCMI-08 was 5.13 min. MS detection condition to PCMI-08 was set as follows: 957→901 m/z; paclitaxel as an internal standard. Detection conditions: 876→308 m/z. The concentration range of the standard curve of PCMI-08 was 5-10,000 ng/ml (γ^2>0.99) and the minimum detection limit was 5 ng/ml.
# 100 μL of plasma samples were taken, into which 100 μL of the internal standard (paclitaxel, 500 ng/ml acetonitrile solution) was added, followed by addition of 3 ml of ethyl acetate after well homogenized via vortex, after 5 min shaking, centrifuging for 8 min at a rotating speed of 4500 rpm. The supernatant was transferred to a clean EP tube with nitrogen to blow to dry under heating condition. After reconstitution with 120 μL mobile phase (CH3CN/H2O=7:3), the solution was centrifuged at 12,000 rpm for 3 min, 100 μl of supernatant was taken and transferred to an autosampler vial. After LC-MS/MS detection, statistical data and pharmacokinetic parameters were processed by Xcalibur® (version 1.3) software (Thermo Finnigan).
# BGC-823 gastric cancer = experiment: MTT proliferation inhibition, BGC-823; format: cell-based; details: Homo sapiens, BGC-823, read-out: Proliferation inhibition rate, BGC-823 Gastric cancer
# Description: as §1, §2
# [2] = tested on: breast cancer cell line MCF-7; experiment: IC50 on breast cancer cell line MCF-7; format: cell-based; details: Homo sapiens, MCF7, 72 h, read-out: MCF-7 (IC50, nM)
# [3] = tested on: NCI-H460 non-small cell lung cancer; experiment: MTT proliferation inhibition, NCI-H460; format: cell-based; details: Homo sapiens, NCI-H460, read-out: Proliferation inhibition rate, NCI-H460 Non-small cell lung cancer
# Description: as §1, §2
# [4] = tested on: A549 non-small cell lung cancer; experiment: MTT proliferation inhibition, A549; format: cell-based; details: Homo sapiens, A549, read-out: Proliferation inhibition rate, A549 Non-small cell lung cancer
# Description: as §1, §2
# LN-18 = experiment: MTT proliferation inhibition, LN-18; format: cell-based; details: Homo sapiens, LN-18, read-out: Proliferation inhibition rate, LN-18 Gastric canser
# Description: as §1, §2
# A2780 ovarian cancer = experiment: MTT proliferation inhibition, A2780; format: cell-based; details: Homo sapiens, A2780, read-out: Proliferation inhibition rate, A2780 Ovarian cancer
# Description: as §1, §2
# Caco-2 cell monolayer = experiment: Caco-2 bidirectional transport, efflux ratio; details: Caco-2 cell line (21 days)
# Description: (§3) Human-derived colorectal adenocarcinoma cell line Caco-2 cell monolayer model was used to study the bidirectional transport of the target compounds from the apical (AP) side to the basolateral (BL) side and from BL side to AP side. HPLC was used for quantitative analysis to calculate transport parameters, apparent permeability coefficient (Papp) and the efflux ratio.
# [5] = Caco-2 cell monolayer membrane transport assay (Papp and recovery); format: in vitro ADME; details: human, Caco-2, Caco-2, A-B
# Description: Caco-2 Cell Monolayer Membrane Transport Assay
# as §3
# [6] = male, Sprague-Dawley, plasma, intravenous administration 5 mg/kg
# [7] = male, Sprague-Dawley, plasma, oral administration 60 mg/kg
smiles,measurement,setting,value
CO[C@H]1C[C@H]2OC[C@@]2(OC(C)=O)[C@H]2[C@H](OC(=O)c3ccccc3)[C@]34OC(=O)O[C@H]3[C@H](OC(=O)[C@H](O)[C@@H](NC(=O)OC(C)(C)C)c3ccccc3)C(C)=C([C@@H](OC(=O)N(C)C)C(=O)[C@]12C)C4(C)C [PCMI-08],inhibition at 1 µM,Hela cervical cancer,97.3%
same,inhibition at 1 µM,HT-29 colon cancer,81.7%
same,inhibition at 1 µM,LNCaP prostate cancer,84.3%
same,inhibition at 1 µM,HCT 116 colon cancer,58.7%
same,half-life,"[1]; male, Sprague-Dawley, plasma, other: intravenous and oral (summary over both arms), route not specified, read-out: half-life (converted)",~10 h
same,AUC(0-inf),[1]; [6],4050 ± 1860 ng·h/mL
same,Cmax,[1]; [6],11000 ± 2680 ng/mL
same,Tmax,[1]; [6],0 h
same,AUC(0-t),[1]; [6],3440 ± 1480 ng·h/mL
same,MRT inf,[1]; [6],10.1 ± 2.6 h
same,half-life,"[1]; male, Sprague-Dawley, plasma, intravenous administration 5 mg/kg, read-out: t1/2 (converted)",10.2 ± 1.72 h
same,AUC(0-inf),[1]; [7],32000 ± 8540 ng·h/mL
same,Cmax,[1]; [7],2120 ± 454 ng/mL
same,Tmax,[1]; [7],3 ± 1.1 h
same,AUC(0-t),[1]; [7],25300 ± 6150 ng·h/mL
same,MRT inf,[1]; [7],15.2 ± 1.71 h
same,half-life,"[1]; male, Sprague-Dawley, plasma, oral administration 60 mg/kg, read-out: t1/2 (converted)",10.4 ± 1.14 h
same,bioavailability,"[1]; male, Sprague-Dawley, plasma, oral, 60 mg/kg, oral 60 mg/kg vs intravenous 5 mg/kg, read-out: F, absolute oral bioavailability",65.8%
same,"F, absolute oral bioavailability",[1]; oral 60 mg/kg vs intravenous 5 mg/kg,65.79%
same,mean retention time,[1]; route not specified,≥ 10 h
same,inhibition at 1 µM,BGC-823 gastric cancer,80.8%
same,IC50,[2],7.93 ± 0.14 nM
same,inhibition at 1 µM,[3],85.2%
same,inhibition at 1 µM,[4],68.1%
same,inhibition at 1 µM,LN-18,87.7%
same,inhibition at 1 µM,A2780 ovarian cancer,92.5%
same,Papp A-B,Caco-2 cell monolayer; A-B,16.40 10^−6 cm/s
same,Papp B-A,Caco-2 cell monolayer; B-A,33.48 10^−6 cm/s
same,efflux ratio,Caco-2 cell monolayer; Papp B-A/Papp A-B,2.04
same,Papp A→B,"[5]; Mean, read-out: Papp A-B, Mean",> 10 ×10⁻⁶ cm/s
same,recovery,"[5]; Mean, read-out: Recovery rate in mass, Mean",99.4%
same,Papp A→B,"[5]; Sample-01, read-out: Papp A-B, Sample-01",19.5 ×10⁻⁶ cm/s
same,recovery,"[5]; Sample-01, read-out: Recovery rate in mass, Sample-01",102%
same,Papp A→B,"[5]; Sample-02, read-out: Papp A-B, Sample-02",17.3 ×10⁻⁶ cm/s
same,recovery,"[5]; Sample-02, read-out: Recovery rate in mass, Sample-02",97%
